Article PMC11404609, “Gut microbiota-mediated C-sulfonate metabolism impairs the bioavailability and anti-cholestatic efficacy of andrographolide” (Gut Microbes, 2024)

Experiments:
SULTs = experiment: AP incubation with liver S9 fraction (SULT-mediated metabolism); format: in vitro ADME, human, rat, mouse; settings: HLS9, RLS9, MLS9 with PAPS, 37°C
Method: A sulfonate reaction system and incubation procedures were followed those of a previous study^4. Briefly, the reaction mixture (total volume 200 μL) consists of 10 μL enzymes (MLS9, RLS9 and HLS9 at different concentrations), 5 μL magnesium chloride (1 mM), 5 μL 3’-phosphoadenosine-5’-phosphosulfate (PAPS, 0.05 mM), 178 μL potassium phosphate (KPI) buffer (44.5 mM, pH 7.4) and 2 μL AP at different concentrations. The mixture was prepared in triplicates and incubated in a shaking water bath at 37°C for various durations. The reactions were terminated by the addition of acetonitrile solution.

[1] = tested on: FXR downstream bile acid transporters; experiment: Expression of FXR downstream bile acid transporters in liver (qPCR, Western blot); format: in vivo, mice; settings: AP 200 mg/kg i.p.
Method: Total RNA from frozen livers of Vehicle, AP (200 mg/kg, i.p.), ANIT (50 mg/kg), and ANIT+AP (200 mg/kg, i.p.) groups was extracted using the Animal Total RNA Isolation Kit (FOREGENE, China). cDNA was synthesized using a Color Reverse Transcription Kit (EZBioscience, Roseville, CA, USA). qPCR was performed using SYBR green/Rox qPCR master mix (EZBioscience, Roseville, CA, USA), according to the manufacturer’s instruction. The expression of target genes was normalized to β-actin, and fold changes were calculated using 2^–ΔΔCT method. For bacterial identification, genomic DNA of fecal flora was isolated using the TIANamp Stool DNA Kit (TIANGEN, Beijing, China) and qPCR was performed. The relative abundance and expression of Desulfovibrio spp., D. piger and APS reductase were normalized to the amounts of total bacteria (16S). All primers were synthesized by Tsingke Biotechnology Co., Ltd. (Beijing, China) and were listed in Supplementary Table S1.
Liver tissue from Vehicle, AP (200 mg/kg, i.p.), ANIT (50 mg/kg), and ANIT+AP (200 mg/kg, i.p.) groups was homogenized in RIPA buffer (Thermo Scientific). […] The collected supernatant was quantified using BCA protein assay kit (Epizyme). […] To visualize the protein bands, the membrane was reacted with Immobilon Forte Western HRP (Millipore) substrate solution for 2 min and analyzed using Tanon5200 imager. […]

[2] = Plasma pharmacokinetics of AP after oral administration in mice; format: in vivo; settings: for Fr (%) relative oral bioavailability / AUC(0-inf) / AUC(0-t) / Cmax / Tmax / half-life: AP 100 mg/kg oral gavage; for AUC(0-inf) / AUC(0-t) / Cmax / Tmax / half-life: mouse, plasma, po, 100 mg/kg, mean ± SD
Method: Mice were orally administered APS reductase inhibitor bromocriptine mesylate (20 mg/kg, p.o.) or Na2SO4 (200 mg/kg, p.o.) or saline solution 1 week prior to AP treatment (a single dose of AP at 100 mg/kg, p.o.). Blood samples (50 μL) were collected at predetermined time points (0, 10, 20, 40, 60, 90, 120, 240, 360 min). In specific cases, mice were orally administrated with D. piger suspension (0.2 mL, 1 × 10^9 CFU/mL) or saline solution by oral gavage for 2 weeks before AP treatment (a single dose of AP at 100 mg/kg, p.o.).
The pharmacokinetic parameters of AP including peak time (Tmax), maximum concentration (Cmax), area under the curve from zero time to the last time point measured (AUC0-t), area under the curve from zero time to infinity (AUC0-∞), and elimination half-life (t1/2) were estimated using DAS 2.0 software (Shanghai, China). The relative oral bioavailability (Fr) of AP was calculated by the following equation: Fr(%)=AUC0−∞of ABX/Inhibitor/SO42−/D.piger/AUC0−∞of Control×100%
An ACQUITY^TM UPLC-MS/MS system equipped with an ACQUITY^TM UPLC BEH C18 Column (50 × 2.1 mm I.D., 1.7 μm, Waters, Milford, MA, USA) was utilized for the quantification of AP and APM as previously described.[47] Briefly, the detection samples (50 μL) were mixed with 50 μL of IS (50 ng/mL). AP and APM were extracted by 400 μL cold methanol. Supernatants were dried under nitrogen stream. Then, the residue was dissolved with 50% methanol in water, centrifuged for 30 min at 13,000 rpm, and 10 µL of the supernatant was subjected to UPLC-MS/MS analysis. The mobile phases consisted of eluent A (water) and eluent B (methanol) with a gradient elution as follows: 0–0.8 min, 10% B; 0.8–1.2 min, 10–90% B; 1.2–5.0 min, 90% B; 5.0–5.5 min, 90–10% B; 5.5–7.0 min, 10% B. The flow rate was 0.3 mL/min and the injection volume of all samples was 10 μL. The quantification of AP, APM and IS was performed by UPLC-MS/MS using an MRM method with the transitions of m/z 349.1→m/z 287.2 for AP, m/z 413.2→m/z 287.2 for APM, m/z 269→m/z 133 for IS.

[3] = mice, Control group (Table 3), n = 10
[4] = mice, Control group (Table 4), n = 12
[5] = mice, D. piger group (D. piger suspension by gavage 2 weeks before), n = 12
[6] = mice, Inhibitor group (bromocriptine mesylate 20 mg/kg p.o. 1 week before), n = 10
[7] = mice, SO4^2- group (Na2SO4 200 mg/kg p.o. 1 week before), n = 10

In the case of C=C1CC[C@@H]2[C@](C)(CO)[C@H](O)CC[C@@]2(C)[C@@H]1C/C=C1/C(=O)OC[C@H]1O [AP, Andrographolide], the “production of the metabolite APM in SULT-mediated metabolism incubation system” value (SULTs) is reported as “absence of detectable production”, the “expression of FXR downstream bile acid transporters (Mrp2, Mrp3, Mrp4, Oatp1, and Ntcp, except for Bsep, Ost-α and Ost-β)” value [1] is reported as “heightened the expression” and the “reduction in AP bioavailability” value ([2]; mice colonized with D. piger) is reported as 60.11%. The “Fr (%) relative oral bioavailability” value ([2]; mice, D. piger group vs Control (AUC0-∞ ratio)) was 39.89%, the “Fr (%) relative oral bioavailability” value ([2]; mice, Inhibitor group vs Control (AUC0-∞ ratio)) was 147.48% and the “Fr (%) relative oral bioavailability” value ([2]; mice, SO4^2- group vs Control (AUC0-∞ ratio)) was 29.42%. For the same compound, the “increase in AP bioavailability” value ([2]; mice, inhibition of APS reductase by bromocriptine mesylate) was 47.48%, the “reduction in AP bioavailability” value ([2]; mice, treatment of Na2SO4) was 70.58% and the AUC(0-inf) [2, 3] was 772 ng·h/mL. For the same compound, the AUC(0-t) [2, 3] was 646 ng·h/mL, the Cmax [2, 3] was 500 ± 330 ng/mL and the Tmax [2, 3] was 32 min. It also gave a half-life [2, 3] of 146 ± 67.4 min, an AUC(0-inf) [2, 4] of 1030 ng·h/mL and an AUC(0-t) [2, 4] of 909 ng·h/mL. It also gave a Cmax [2, 4] of 760 ± 440 ng/mL, a Tmax [2, 4] of 41.7 min and a half-life [2, 4] of 136 ± 65.2 min. For the same compound, the AUC(0-inf) [2, 5] was 411 ng·h/mL, the AUC(0-t) [2, 5] was 374 ng·h/mL and the Cmax [2, 5] was 360 ± 280 ng/mL. For the same compound, the Tmax [2, 5] was 35 min, the half-life [2, 5] was 77.2 ± 38.6 min and the AUC(0-inf) [2, 6] was 1140 ng·h/mL. For the same compound, the AUC(0-t) [2, 6] was 906 ng·h/mL, the Cmax [2, 6] was 970 ± 370 ng/mL and the Tmax [2, 6] was 27 min. For the same compound, the half-life [2, 6] was 146 ± 86.4 min, the AUC(0-inf) [2, 7] was 227 ng·h/mL and the AUC(0-t) [2, 7] was 199 ng·h/mL. The Cmax [2, 7] was 142 ± 30 ng/mL, the Tmax [2, 7] was 17 min and the half-life [2, 7] was 133 ± 104 min.
